# Test results: ChEMBL document CHEMBL1938312, “Design and combinatorial synthesis of a novel kinase-focused library using click chemistry-based fragment assembly” (Bioorg Med Chem Lett, 2012)
# Activity calls are given as the source filed them. The rule behind the calls is not given here.
# Key:
# [1] = target: Tyrosine-protein kinase ABL1 (Homo sapiens) (UniProt P00519); assay: Inhibition of Abl at 10 uM by colorimetric analysis
# [2] = target: T1, Tyrosine-protein kinase JAK3 (Homo sapiens) (UniProt P52333); assay: Inhibition of JAK3 at 10 uM by colorimetric analysis
# T1 sequence (whole entry): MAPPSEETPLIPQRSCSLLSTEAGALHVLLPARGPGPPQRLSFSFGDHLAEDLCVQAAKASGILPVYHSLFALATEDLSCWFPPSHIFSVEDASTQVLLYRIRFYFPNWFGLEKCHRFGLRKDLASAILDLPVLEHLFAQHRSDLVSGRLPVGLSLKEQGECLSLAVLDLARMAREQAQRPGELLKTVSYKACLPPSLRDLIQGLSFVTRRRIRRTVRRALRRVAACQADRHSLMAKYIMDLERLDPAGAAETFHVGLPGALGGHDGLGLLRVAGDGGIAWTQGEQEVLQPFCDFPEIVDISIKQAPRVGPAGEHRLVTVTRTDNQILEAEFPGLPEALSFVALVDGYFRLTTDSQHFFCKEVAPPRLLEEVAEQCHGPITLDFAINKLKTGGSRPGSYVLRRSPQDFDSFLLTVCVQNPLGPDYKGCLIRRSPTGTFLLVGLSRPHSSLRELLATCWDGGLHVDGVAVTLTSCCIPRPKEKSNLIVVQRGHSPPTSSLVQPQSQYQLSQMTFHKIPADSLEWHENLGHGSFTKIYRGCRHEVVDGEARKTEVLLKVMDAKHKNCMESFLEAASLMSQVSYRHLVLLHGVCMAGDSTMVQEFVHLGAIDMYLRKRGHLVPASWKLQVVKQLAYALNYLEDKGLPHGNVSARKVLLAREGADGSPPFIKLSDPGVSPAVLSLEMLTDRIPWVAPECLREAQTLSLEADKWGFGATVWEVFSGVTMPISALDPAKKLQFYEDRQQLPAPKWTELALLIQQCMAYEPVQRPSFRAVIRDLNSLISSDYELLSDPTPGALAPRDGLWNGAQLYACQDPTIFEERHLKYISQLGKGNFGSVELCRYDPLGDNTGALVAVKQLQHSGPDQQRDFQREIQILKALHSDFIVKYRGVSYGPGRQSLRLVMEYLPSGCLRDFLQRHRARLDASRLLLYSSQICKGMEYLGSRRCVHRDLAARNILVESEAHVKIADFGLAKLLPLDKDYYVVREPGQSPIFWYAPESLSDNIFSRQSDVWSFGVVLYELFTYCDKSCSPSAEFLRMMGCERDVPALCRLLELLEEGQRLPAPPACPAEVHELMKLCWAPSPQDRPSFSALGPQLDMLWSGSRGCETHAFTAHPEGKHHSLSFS
# [3] = target: T2, Tyrosine-protein kinase receptor TYRO3 (Homo sapiens) (UniProt Q06418); assay: Inhibition of TYRO3 at 10 uM by colorimetric analysis
# T2 sequence (whole entry): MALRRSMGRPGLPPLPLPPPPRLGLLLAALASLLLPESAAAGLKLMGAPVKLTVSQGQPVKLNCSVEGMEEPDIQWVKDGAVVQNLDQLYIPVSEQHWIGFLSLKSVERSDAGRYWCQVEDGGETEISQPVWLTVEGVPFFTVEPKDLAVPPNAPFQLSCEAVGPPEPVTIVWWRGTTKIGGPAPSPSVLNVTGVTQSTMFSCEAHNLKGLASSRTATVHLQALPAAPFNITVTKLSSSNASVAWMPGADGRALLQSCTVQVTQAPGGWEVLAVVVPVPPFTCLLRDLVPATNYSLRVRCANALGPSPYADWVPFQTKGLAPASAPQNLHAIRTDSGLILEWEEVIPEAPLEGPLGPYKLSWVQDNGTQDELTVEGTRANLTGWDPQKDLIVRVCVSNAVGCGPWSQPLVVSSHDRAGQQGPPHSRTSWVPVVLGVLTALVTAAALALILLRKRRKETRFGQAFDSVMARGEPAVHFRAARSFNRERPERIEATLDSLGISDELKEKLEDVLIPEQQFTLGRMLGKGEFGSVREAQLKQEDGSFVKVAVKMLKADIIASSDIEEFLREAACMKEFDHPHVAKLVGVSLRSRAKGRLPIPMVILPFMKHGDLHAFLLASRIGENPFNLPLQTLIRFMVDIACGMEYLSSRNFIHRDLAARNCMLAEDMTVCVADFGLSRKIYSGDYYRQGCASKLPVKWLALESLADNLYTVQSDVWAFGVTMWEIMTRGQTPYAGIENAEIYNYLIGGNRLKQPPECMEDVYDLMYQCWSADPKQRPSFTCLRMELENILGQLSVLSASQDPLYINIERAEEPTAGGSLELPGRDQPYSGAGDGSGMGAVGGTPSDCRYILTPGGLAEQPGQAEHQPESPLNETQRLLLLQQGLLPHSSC
# [4] = target: T3, Receptor-type tyrosine-protein kinase FLT3 (Homo sapiens, UniProt P36888); assay: Inhibition of FLT3 by colorimetric analysis
# T3 sequence (P36888 whole entry): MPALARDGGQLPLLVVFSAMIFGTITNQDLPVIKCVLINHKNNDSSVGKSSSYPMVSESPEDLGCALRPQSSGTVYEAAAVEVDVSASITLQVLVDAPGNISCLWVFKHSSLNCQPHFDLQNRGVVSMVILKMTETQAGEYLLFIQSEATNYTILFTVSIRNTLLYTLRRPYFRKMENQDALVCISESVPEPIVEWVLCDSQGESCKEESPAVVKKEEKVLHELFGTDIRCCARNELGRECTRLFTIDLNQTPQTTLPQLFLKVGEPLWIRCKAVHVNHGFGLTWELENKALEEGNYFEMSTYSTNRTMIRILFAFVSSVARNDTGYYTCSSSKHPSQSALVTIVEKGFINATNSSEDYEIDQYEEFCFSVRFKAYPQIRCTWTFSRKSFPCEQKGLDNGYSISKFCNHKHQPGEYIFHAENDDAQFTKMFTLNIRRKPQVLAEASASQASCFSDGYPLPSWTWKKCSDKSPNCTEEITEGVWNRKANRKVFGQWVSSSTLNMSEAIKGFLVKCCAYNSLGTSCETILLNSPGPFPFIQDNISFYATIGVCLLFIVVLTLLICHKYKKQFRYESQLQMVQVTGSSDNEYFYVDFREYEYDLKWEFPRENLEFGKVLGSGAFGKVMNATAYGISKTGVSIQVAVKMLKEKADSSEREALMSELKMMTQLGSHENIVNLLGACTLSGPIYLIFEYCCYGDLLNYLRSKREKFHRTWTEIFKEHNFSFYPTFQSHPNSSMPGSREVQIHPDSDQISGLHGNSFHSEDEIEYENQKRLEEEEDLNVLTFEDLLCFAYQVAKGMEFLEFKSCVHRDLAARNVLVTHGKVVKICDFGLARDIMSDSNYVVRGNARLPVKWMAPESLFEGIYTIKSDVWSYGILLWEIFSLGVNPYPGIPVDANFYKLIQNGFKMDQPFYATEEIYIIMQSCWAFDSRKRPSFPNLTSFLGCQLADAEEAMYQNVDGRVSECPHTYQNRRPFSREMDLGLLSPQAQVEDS
# Sequence of Tyrosine-protein kinase ABL1 (Homo sapiens) (P00519 whole entry): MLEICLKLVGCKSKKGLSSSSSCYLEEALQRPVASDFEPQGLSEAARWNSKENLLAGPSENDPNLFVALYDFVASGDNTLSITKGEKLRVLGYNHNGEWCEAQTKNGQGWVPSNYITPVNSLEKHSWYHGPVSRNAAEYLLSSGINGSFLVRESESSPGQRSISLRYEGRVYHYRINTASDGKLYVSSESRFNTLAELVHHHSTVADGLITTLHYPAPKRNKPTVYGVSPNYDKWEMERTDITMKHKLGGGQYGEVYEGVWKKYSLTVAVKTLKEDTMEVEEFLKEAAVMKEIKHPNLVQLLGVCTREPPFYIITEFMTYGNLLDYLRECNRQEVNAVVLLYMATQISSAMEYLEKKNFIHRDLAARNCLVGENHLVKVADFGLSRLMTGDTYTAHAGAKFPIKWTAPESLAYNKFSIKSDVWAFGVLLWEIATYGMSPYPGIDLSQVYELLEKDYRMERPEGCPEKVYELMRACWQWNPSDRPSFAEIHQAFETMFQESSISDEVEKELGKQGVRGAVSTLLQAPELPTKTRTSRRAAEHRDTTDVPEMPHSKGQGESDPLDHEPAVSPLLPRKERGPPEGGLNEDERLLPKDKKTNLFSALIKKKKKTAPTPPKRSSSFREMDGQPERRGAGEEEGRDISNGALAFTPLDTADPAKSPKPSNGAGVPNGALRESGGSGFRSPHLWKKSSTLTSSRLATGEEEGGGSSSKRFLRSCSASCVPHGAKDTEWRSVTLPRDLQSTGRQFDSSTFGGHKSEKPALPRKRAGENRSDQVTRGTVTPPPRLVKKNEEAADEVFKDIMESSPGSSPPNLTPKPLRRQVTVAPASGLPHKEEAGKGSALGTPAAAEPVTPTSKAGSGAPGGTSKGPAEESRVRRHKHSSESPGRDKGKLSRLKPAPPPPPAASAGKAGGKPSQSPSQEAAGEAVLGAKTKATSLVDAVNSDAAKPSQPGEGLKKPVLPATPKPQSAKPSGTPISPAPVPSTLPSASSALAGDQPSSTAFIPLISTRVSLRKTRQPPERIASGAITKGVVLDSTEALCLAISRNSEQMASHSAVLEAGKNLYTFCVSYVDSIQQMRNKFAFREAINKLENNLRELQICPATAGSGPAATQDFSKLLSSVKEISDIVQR
SMILES,inhibition [1],inhibition [2],inhibition [3],IC50 [4] [µM]
Clc1cccc(-n2cc(-c3ccncc3)nn2)c1,inactive,inactive,inactive,10.5
Clc1ccc(-n2nncc2-c2ccncc2)cc1,inactive,inactive,inactive,1.7
Clc1ccc(-n2cc(-c3ccncc3)nn2)cc1,inactive,inactive,inactive,5.8
Clc1cccc(-n2nncc2-c2ccncc2)c1,inactive,inactive,inactive,4.4
